Test [1] concerns the target T1, D(2) dopamine receptor (Bos taurus, UniProt P20288). Description: Evaluated for binding towards Dopamine receptor D2 using [3H]-spiperone as radioligand, in cloned mammalian receptors expressed in CHO-K1 cells. Format: cell-based.
The target of test [2] is T2, D(2) dopamine receptor (Rattus norvegicus, UniProt P61169). The test is described as follows: Evaluated for binding towards Dopamine receptor D2 using [3H]N-0437 as radioligand from rat striatal membrane.
Test [3] concerns the target T2, D(2) dopamine receptor. Description: Binding towards Dopamine receptor D2 using [3H]spiperone from rat striatal membrane.
Test [4] concerns Rattus norvegicus. Description: Evaluated for DOPA accumulation in limbic region of nonpretreated rat at 52 umol / kg administered subcutaneously. Format: functional, Limbic system.
In test [5] the test system is Rattus norvegicus. Description: Evaluated for DOPA accumulation in limbic region of nonpretreated rat at 13 umol / kg administered subcutaneously. It counts as functional, Limbic system.
Test [6] has as its system Rattus norvegicus. Description: Evaluated for rat locomotor activity in nonhabituated rats at 52 umol / kg administered subcutaneously. It counts as functional.
Test [7] is filed under the species Rattus norvegicus. Description: Evaluated for rat locomotor activity in nonpretreated habituated rats at 25 umol / kg. Format: functional.
Test [8] concerns Rattus norvegicus. The test is described as follows: Evaluated for DOPA accumulation in limbic region of reserpine pretreated rat at 52 umol / kg administered subcutaneously. Format: functional, Limbic system.
Test [9] deals with Rattus norvegicus. The test is described as follows: Evaluated for DOPA accumulation in striatum of nonpretreated rat at 13 umol / kg administered subcutaneously. It counts as functional.
Test [10] deals with Rattus norvegicus. The test is described as follows: Evaluated for DOPA accumulation in striatum of nonpretreated rat at 52 umol / kg administered subcutaneously. Format: functional.
For test [11], the system named is Rattus norvegicus. The test is described as follows: Evaluated for DOPA accumulation in striatum of reserpine pretreated rat at 52 umol / kg administered subcutaneously. Format: functional.
The test system of test [12] is Rattus norvegicus. The test is described as follows: Evaluated in rat accumbens for the effect on dopamine release and metabolism in brain dialysis model after administration of 50 umol / kg subcutaneously. Format: functional.
Test [13] deals with Rattus norvegicus. Description: Evaluated in rat accumbens for the effect onDOPAC release and metabolism in brain dialysis model after administration of 50 umol / kg subcutaneously. It counts as functional.
The subject of test [14] is Rattus norvegicus. The test is described as follows: Evaluated in rat striatum for the effect on DOPAC release and metabolism in brain dialysis model after administration of 50 umol / kg subcutaneously. Further details: unit not given beside the values. It counts as functional.
The subject of test [15] is Rattus norvegicus. The test is described as follows: Evaluated in rat striatum for the effect on dopamine release and metabolism in brain dialysis model after administration of 50 umol / kg subcutaneously. Format: functional. Further details: unit not given beside the values.
Test [16] concerns Rattus norvegicus. Description: Evaluated for rat locomotor activity in nonhabituated rats at 13 umol / kg administered subcutaneously. Format: functional.
For test [17], the species on record is Rattus norvegicus. The test is described as follows: Rat locomotor activity in reserpine pretreated rats and accumulated counts / 30 min is calculated. Format: functional.
Test [18] addresses T1, D(2) dopamine receptor. Description: Binding towards Dopamine receptor D2 expressed in CHO-K1 cells using [3H]U-86170. Format: cell-based.
The species named for test [19] is Rattus norvegicus. Description: Evaluated for rat locomotor activity in nonpretreated habituated rats at 100 umol / kg. Further details: unit not given beside the values. It counts as functional.
The next test has as its target D(3) dopamine receptor (Homo sapiens, UniProt P35462).
The target of a further test is T3, D(4) dopamine receptor (Homo sapiens, UniProt P21917).
T3 sequence (P21917 whole entry): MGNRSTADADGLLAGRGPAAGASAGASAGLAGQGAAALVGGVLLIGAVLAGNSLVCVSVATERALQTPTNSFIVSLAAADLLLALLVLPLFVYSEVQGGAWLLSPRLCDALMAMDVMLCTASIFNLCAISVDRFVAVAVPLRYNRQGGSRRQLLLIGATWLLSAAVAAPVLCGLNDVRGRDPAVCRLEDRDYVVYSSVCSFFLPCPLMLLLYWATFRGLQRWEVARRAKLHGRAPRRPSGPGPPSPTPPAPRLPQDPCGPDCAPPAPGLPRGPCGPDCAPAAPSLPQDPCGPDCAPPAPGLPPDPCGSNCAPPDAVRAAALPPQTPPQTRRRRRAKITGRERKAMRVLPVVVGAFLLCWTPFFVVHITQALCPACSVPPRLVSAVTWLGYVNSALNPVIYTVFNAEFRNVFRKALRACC

Structures are written as SMILES.

T2 sequence (P61169 whole entry): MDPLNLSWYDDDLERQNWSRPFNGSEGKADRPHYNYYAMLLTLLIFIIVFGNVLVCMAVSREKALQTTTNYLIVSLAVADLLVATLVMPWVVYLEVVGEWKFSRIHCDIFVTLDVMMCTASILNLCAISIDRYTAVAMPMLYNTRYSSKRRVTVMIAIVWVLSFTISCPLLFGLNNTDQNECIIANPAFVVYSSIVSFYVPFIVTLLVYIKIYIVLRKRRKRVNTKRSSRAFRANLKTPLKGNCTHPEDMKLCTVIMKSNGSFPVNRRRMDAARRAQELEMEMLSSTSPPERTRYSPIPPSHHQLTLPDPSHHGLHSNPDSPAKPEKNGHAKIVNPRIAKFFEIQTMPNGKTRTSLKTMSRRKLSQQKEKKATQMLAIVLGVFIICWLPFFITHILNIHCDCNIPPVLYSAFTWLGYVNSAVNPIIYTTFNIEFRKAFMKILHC
T1 sequence (P20288 whole entry): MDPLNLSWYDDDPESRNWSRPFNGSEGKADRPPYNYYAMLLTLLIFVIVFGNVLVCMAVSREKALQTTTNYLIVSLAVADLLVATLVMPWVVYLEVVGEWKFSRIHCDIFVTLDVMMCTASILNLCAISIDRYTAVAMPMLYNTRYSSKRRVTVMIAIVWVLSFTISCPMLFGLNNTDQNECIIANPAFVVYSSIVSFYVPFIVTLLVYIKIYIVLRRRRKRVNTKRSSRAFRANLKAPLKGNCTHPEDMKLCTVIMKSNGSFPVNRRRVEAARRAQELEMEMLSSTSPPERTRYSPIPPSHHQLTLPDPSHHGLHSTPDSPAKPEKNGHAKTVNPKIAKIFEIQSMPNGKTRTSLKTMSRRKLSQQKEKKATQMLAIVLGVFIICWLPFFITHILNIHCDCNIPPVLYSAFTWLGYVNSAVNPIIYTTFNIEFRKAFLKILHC
D(3) dopamine receptor, sequence (P35462 whole entry): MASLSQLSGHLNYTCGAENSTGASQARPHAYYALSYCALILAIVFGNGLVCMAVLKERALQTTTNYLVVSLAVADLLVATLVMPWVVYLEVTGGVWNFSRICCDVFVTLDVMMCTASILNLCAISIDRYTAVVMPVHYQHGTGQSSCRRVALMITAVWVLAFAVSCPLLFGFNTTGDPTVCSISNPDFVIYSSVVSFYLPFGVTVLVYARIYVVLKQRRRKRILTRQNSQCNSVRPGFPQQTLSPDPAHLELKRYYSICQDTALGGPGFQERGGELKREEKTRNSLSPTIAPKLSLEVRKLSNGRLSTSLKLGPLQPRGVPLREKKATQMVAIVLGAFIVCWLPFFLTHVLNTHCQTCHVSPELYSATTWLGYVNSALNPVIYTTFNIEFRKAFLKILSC
Description for D(3) dopamine receptor: Binding towards Dopamine receptor D3 expressed in CHO-K1 cells using [3H]spiperone
Description for D(4) dopamine receptor: Binding towards dopamine receptor D4 expressed in CHO-K1 cells using [3H]spiperone

What is called Ki is a measure of affinity in units of concentration, obtained from inhibition or displacement. Turning to `CCCN[C@@H]1CCc2c(OC)cccc2[C@@H]1C`, the Ki at D(2) dopamine receptor [1] was found to be 158 nM; at D(2) dopamine receptor [2], 300 nM; at D(2) dopamine receptor [3] it was 530 nM; on D(2) dopamine receptor [18], 145 nM; at D(3) dopamine receptor, 26 nM; at D(4) dopamine receptor it was 117 nM. In addition, the Activity in the test on Rattus norvegicus [4] is recorded as 253; in the test with Rattus norvegicus [5] it was 223; in the test on Rattus norvegicus [6], 159; in the test listed under Rattus norvegicus [7] it was 300; in the test on Rattus norvegicus [8], 108; with Rattus norvegicus [9], 330. In addition, the Activity with Rattus norvegicus [10] came to 400; in the test with Rattus norvegicus [11] it was 102; in the test on Rattus norvegicus [12], 313; in the test on Rattus norvegicus [13], 235; in the test with Rattus norvegicus [14], 315; in the test on Rattus norvegicus [15], 285. The Activity in the test with Rattus norvegicus [16] is reported as 155; in the test listed under Rattus norvegicus [17] it was 11; in the test filed under Rattus norvegicus [19] it was 350.

These data come from ChEMBL document CHEMBL1126862, “Substituted 3-phenylpiperidines: new centrally acting dopamine autoreceptor antagonists” (J Med Chem, 1993).
